Assay results from US8586579B2, “Anellated pyridine compounds” (Hoffmann-La Roche Inc., priority 2010, dated 2013).
Read-outs that look alike come from different tables or passages of the source.

Assays:
[1] = molecular target: human D3 receptor (Homo sapiens (Human), UniProt P35462); assay: Radioligand binding assay, [3H]-spiperone, human D3 receptor; conditions: membranes of HEK293 EBNA cells expressing human D3; 0.5 nM [3H]-spiperone
In short: (§1)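 Incubation was 1 h at RT, using 1.1 nM [3H]-ketanserin at 5-HT2A or 0.5 nM [3H]-spiperone at D3, on membranes of transiently transfected HEK293 EBNA cells. Nonspecific binding was set with 10 μM unlabelled spiperone.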

[2] = molecular target: human 5-HT2A receptor (Homo sapiens (Human), UniProt P28223); assay: Radioligand binding assay, [3H]-ketanserin, human 5-HT2A receptor
human 5-HT2A receptor, sequence (P28223 whole entry): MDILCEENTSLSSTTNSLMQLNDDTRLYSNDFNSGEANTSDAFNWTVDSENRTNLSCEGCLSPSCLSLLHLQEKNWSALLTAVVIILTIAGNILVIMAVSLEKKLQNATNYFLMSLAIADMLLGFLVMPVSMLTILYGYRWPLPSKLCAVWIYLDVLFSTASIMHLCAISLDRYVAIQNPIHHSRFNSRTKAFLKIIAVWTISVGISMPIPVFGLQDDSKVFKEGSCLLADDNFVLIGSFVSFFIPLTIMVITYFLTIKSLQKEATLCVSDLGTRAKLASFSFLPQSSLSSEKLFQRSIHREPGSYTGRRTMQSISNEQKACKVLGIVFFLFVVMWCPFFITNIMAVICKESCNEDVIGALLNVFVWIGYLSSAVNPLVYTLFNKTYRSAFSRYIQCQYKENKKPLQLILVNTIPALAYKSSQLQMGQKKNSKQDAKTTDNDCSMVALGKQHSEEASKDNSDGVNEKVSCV
In short: as §1

[3] = molecular target: human D2 receptor (Homo sapiens (Human), UniProt P14416); assay: Radioligand binding assay, [3H]-spiperone, human D2 receptor; conditions: membranes of HEK293 EBNA cells expressing human D2; 0.7 nM [3H]-spiperone
human D2 receptor, sequence (P14416 whole entry): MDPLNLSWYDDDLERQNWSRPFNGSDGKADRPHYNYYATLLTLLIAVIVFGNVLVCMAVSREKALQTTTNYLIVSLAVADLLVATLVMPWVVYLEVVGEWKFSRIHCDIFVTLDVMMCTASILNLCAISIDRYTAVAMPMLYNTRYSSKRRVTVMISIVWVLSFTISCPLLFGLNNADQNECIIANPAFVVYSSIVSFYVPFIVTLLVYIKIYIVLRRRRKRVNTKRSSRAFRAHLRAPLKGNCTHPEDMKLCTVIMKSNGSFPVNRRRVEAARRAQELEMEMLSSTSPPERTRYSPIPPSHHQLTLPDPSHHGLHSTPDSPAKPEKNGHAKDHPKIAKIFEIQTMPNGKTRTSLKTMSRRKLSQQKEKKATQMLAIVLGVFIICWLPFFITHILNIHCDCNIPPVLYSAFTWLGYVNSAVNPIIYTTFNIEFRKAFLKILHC
In short: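 Competition binding used ~0.7 nM [3H]-spiperone, 1 h at room temperature, pH 7.4 Tris/salt buffer, on transiently transfected HEK293 EBNA membranes bearing human D2.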

[4] = membranes of HEK293 EBNA cells expressing human 5-HT2A, 1.1 nM [3H]-ketanserin

human D3 receptor, sequence (P35462 whole entry): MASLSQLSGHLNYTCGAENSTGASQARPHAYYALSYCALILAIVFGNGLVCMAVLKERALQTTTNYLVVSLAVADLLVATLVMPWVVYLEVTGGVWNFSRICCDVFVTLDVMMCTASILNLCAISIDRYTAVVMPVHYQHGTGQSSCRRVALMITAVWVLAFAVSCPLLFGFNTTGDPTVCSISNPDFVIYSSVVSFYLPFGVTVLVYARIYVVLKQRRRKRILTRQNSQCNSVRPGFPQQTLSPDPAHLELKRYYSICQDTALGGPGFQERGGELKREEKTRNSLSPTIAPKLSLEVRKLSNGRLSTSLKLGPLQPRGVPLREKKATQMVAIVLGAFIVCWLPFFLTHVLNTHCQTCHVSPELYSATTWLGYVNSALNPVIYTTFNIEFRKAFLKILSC

SMILES	Ki [1]	melting point	Ki [2, 4]	Ki [3]	Ki [2]
CS(=O)(=O)c1ccc(C(=O)N[C@H]2CC[C@H](CCN3CCN(c4nccc5c4CCO5)CC3)CC2)s1 [Example 115, 5-Methanesulfonyl-thiophene-2-carboxylic acid trans-(4-{2-[4-(2,3-dihydro-furo[3,2-c]pyridin-4-yl)-piperazin-1-yl]-ethyl}-cyclohexyl)-amide]	0.0338 µM	229 °C	0.00946 µM	0.516 µM	–
COCCC(=O)N[C@H]1CC[C@H](CCN2CCN(c3ncc(C)c4c3CCO4)CC2)CC1 [Example 111, trans-3-Methoxy-N-(4-{2-[4-(7-methyl-2,3-dihydro-furo[3,2-c]pyridin-4-yl)-piperazin-1-yl]-ethyl}-cyclohexyl)-propionamide]	0.0468 µM	163.5 °C	0.037 µM	3.56 µM	–
O=C(N[C@H]1CC[C@H](CCN2CCN(c3nccc4c3CCO4)CC2)CC1)c1ccc(N2CCCCC2)cc1 [Example 56, trans-N-(4-{2-[4-(2,3-Dihydro-furo[3,2-c]pyridin-4-yl)-piperazin-1-yl]-ethyl}-cyclohexyl)-4-piperidin-1-yl-benzamide]	0.0443 µM	214.5 °C	–	5.34 µM	0.0192 µM
Cc1cc2occc2c(N2CCN(CC[C@H]3CC[C@H](NC(=O)C4CCOCC4)CC3)CC2)n1 [Example 97, trans-Tetrahydro-pyran-4-carboxylic acid (4-{2-[4-(6-methyl-furo[3,2-c]pyridin-4-yl)-piperazin-1-yl]-ethyl}-cyclohexyl)-amide]	0.0142 µM	219 °C	–	0.275 µM	0.0255 µM
O=C(N[C@H]1CC[C@H](CCN2CCN(c3nccc4c3CCO4)CC2)CC1)C1CC1(F)F (stereo partly drawn) [Example 74, trans-2,2-Difluoro-cyclopropanecarboxylic acid (4-{2-[4-(2,3-dihydro-furo[3,2-c]pyridin-4-yl)-piperazin-1-yl]-ethyl}-cyclohexyl)-amide]	0.0238 µM	184.5 °C	0.0173 µM	0.438 µM	–
Cc1cnc(N2CCN(CC[C@H]3CC[C@H](NC(=O)C4CCOCC4)CC3)CC2)c2c1OCC2 [Example 109, Tetrahydro-pyran-4-carboxylic acid trans-(4-{2-[4-(7-methyl-2,3-dihydro-furo[3,2-c]pyridin-4-yl)-piperazin-1-yl]-ethyl}-cyclohexyl)-amide]	0.0987 µM	223.5 °C	0.0197 µM	4.51 µM	–
C/C=C/CC(=O)N[C@H]1CC[C@H](CCN2CCN(c3nccc4c3CCO4)CC2)CC1 [Example 81, (E)-Pent-3-enoic acid trans-(4-{2-[4-(2,3-dihydro-furo[3,2-c]pyridin-4-yl)-piperazin-1-yl]-ethyl}-cyclohexyl)-amide]	0.0129 µM	175.5 °C	0.0228 µM	0.945 µM	–
O=C(CC1CCCO1)N[C@H]1CC[C@H](CCN2CCN(c3nccc4c3CCO4)CC2)CC1 (mixture of isomers) [Example 64, trans-N-(4-{2-[4-(2,3-Dihydro-furo[3,2-c]pyridin-4-yl)-piperazin-1-yl]-ethyl}-cyclohexyl)-2-rac-(tetrahydro-furan-2-yl)-acetamide]	0.0242 µM	181.5 °C	0.0167 µM	1.26 µM	–
O=C(N[C@H]1CC[C@H](CCN2CCN(c3nccc4c3CCO4)CC2)CC1)C1CC1 [Example 63, Cyclopropanecarboxylic acid trans-(4-{2-[4-(2,3-dihydro-furo[3,2-c]pyridin-4-yl)-piperazin-1-yl]-ethyl}-cyclohexyl)-amide]	0.0185 µM	213 °C	0.0111 µM	0.486 µM	–
O=C(CC1C[C@H](O)CO1)N[C@H]1CC[C@H](CCN2CCN(c3nccc4c3CCO4)CC2)CC1 (stereo in doubt) [Example 91, trans-N-(4-{2-[4-(2,3-Dihydro-furo[3,2-c]pyridin-4-yl)-piperazin-1-yl]-ethyl}-cyclohexyl)-2-((S)-4-hydroxy-tetrahydro-furan-2-yl)-acetamide]	0.0142 µM	155 °C	0.0225 µM	0.926 µM	–
CC(=O)N[C@H]1CC[C@H](CCN2CCN(c3ncc(C)c4c3CCO4)CC2)CC1 [Example 108, trans-N-(4-{2-[4-(7-Methyl-2,3-dihydro-furo[3,2-c]pyridin-4-yl)-piperazin-1-yl]-ethyl}-cyclohexyl)-acetamide]	0.0482 µM	196.5 °C	0.0675 µM	2.31 µM	–
O=C(Cc1ccc2c(c1)OCO2)N[C@H]1CC[C@H](CCN2CCN(c3nccc4c3CCO4)CC2)CC1 [Example 122, trans-2-Benzo[1,3]dioxol-5-yl-N-(4-{2-[4-(2,3-dihydro-furo[3,2-c]pyridin-4-yl)-piperazin-1-yl]-ethyl}-cyclohexyl)-acetamide]	0.0186 µM	212 °C	0.0337 µM	3.04 µM	–
CC(C)(O)CC(=O)N[C@H]1CC[C@H](CCN2CCN(c3nccc4c3CCO4)CC2)CC1 [Example 87, trans-N-(4-{2-[4-(2,3-Dihydro-furo[3,2-c]pyridin-4-yl)-piperazin-1-yl]-ethyl}-cyclohexyl)-3-hydroxy-3-methyl-butyramide]	0.0216 µM	208 °C	0.025 µM	1 µM	–
Cc1cc2c(c(N3CCN(CC[C@H]4CC[C@H](NC(=O)CC5CCOCC5)CC4)CC3)n1)CCO2 [Example 102, trans-N-(4-{2-[4-(6-Methyl-2,3-dihydro-furo[3,2-c]pyridin-4-yl)-piperazin-1-yl]-ethyl}-cyclohexyl)-2-(tetrahydro-pyran-4-yl)-acetamide]	0.0187 µM	218.5 °C	0.193 µM	1.94 µM	–
Cc1cc2occc2c(N2CCN(CC[C@H]3CC[C@H](NC(=O)CC4CCOCC4)CC3)CC2)n1 [Example 98, trans-N-(4-{2-[4-(6-Methyl-furo[3,2-c]pyridin-4-yl)-piperazin-1-yl]-ethyl}-cyclohexyl)-2-(tetrahydro-pyran-4-yl)-acetamide]	0.00945 µM	212.5 °C	0.0759 µM	0.641 µM	–
O=C(N[C@H]1CC[C@H](CCN2CCN(c3nccc4c3CCO4)CC2)CC1)c1ccc2c(c1)OCO2 [Example 121, Benzo[1,3]dioxole-5-carboxylic acid trans-(4-{2-[4-(2,3-dihydro-furo[3,2-c]pyridin-4-yl)-piperazin-1-yl]-ethyl}-cyclohexyl)-amide]	0.0218 µM	243.5 °C	0.0176 µM	3.37 µM	–
CS(=O)(=O)N[C@H]1CC[C@H](CCN2CCN(c3nccc4c3CCO4)CC2)CC1 [Example 48, trans-N-(4-{2-[4-(2,3-Dihydro-furo[3,2-c]pyridin-4-yl)-piperazin-1-yl]-ethyl}-cyclohexyl)-methanesulfonamide]	0.0316 µM	220 °C	0.0217 µM	1.27 µM	–
O=S(=O)(N[C@H]1CC[C@H](CCN2CCN(c3nccc4c3CCO4)CC2)CC1)c1ccccc1 [Example 138, trans-N-(4-{2-[4-(2,3-Dihydro-furo[3,2-c]pyridin-4-yl)-piperazin-1-yl]-ethyl}-cyclohexyl)-benzenesulfonamide]	0.0155 µM	168.5 °C	0.0705 µM	0.243 µM	–
O=C(C[C@@H]1CCCO1)N[C@H]1CC[C@H](CCN2CCN(c3nccc4c3CCO4)CC2)CC1 [Example 69, trans-N-(4-{2-[4-(2,3-Dihydro-furo[3,2-c]pyridin-4-yl)-piperazin-1-yl]-ethyl}-cyclohexyl)-2-(S)-(tetrahydro-furan-2-yl)-acetamide]	0.0181 µM	183.5 °C	–	0.858 µM	0.0249 µM
O=C(C[C@@H](O)C(F)(F)F)N[C@H]1CC[C@H](CCN2CCN(c3nccc4c3CCO4)CC2)CC1 [Example 88, trans-(R)—N-(4-{2-[4-(2,3-Dihydro-furo[3,2-c]pyridin-4-yl)-piperazin-1-yl]-ethyl}-cyclohexyl)-4,4,4-trifluoro-3-hydroxy-butyramide]	0.0197 µM	207 °C	–	0.732 µM	0.0331 µM
O=C(N[C@H]1CC[C@H](CCN2CCN(c3nccc4c3CCO4)CC2)CC1)C(F)(F)F [Example 79, trans-N-(4-{2-[4-(2,3-Dihydro-furo[3,2-c]pyridin-4-yl)-piperazin-1-yl]-ethyl}-cyclohexyl)-2,2,2-trifluoro-acetamide]	0.0473 µM	213 °C	0.0192 µM	0.773 µM	–
O=C(N[C@H]1CC[C@H](CCN2CCN(c3nccc4c3CCO4)CC2)CC1)c1ccc(-c2ccccc2)cc1 [Example 134, Biphenyl-4-carboxylic acid trans-(4-{2-[4-(2,3-dihydro-furo[3,2-c]pyridin-4-yl)-piperazin-1-yl]-ethyl}-cyclohexyl)-amide]	0.0186 µM	232 °C	0.0234 µM	1.13 µM	–
Cc1cnc(N2CCN(CC[C@H]3CC[C@H](NC(=O)CC4CCOCC4)CC3)CC2)c2ccoc12 [Example 106, trans-N-(4-{2-[4-(7-Methyl-furo[3,2-c]pyridin-4-yl)-piperazin-1-yl]-ethyl}-cyclohexyl)-2-(tetrahydro-pyran-4-yl)-acetamide]	0.038 µM	205.5 °C	0.0117 µM	2.72 µM	–
